From patent publication US20040044304A1, “Local drug delivery using photosensitizer-mediated and electromagnetic radiation enhanced vascular permeability” (priority 2002, published 2004)

Tested on: blood vessels within the dorsal window chamber
Type: in vivo, Syrian golden hamsters
Conditions: 150 kD FITC-Dextran conjugate; fluorescence microscopy
Description: Syrian golden hamsters (Charles River Laboratories, Kingston, N.Y.) weighing between 60-70 gram were surgically implanted with titanium back-pack window chambers as described ([…] et al., 1980; Colantuoni et al., 1984; […] et al., 1994). Prior to the surgical procedure, the dorsal surface of the mouse was shaved with electric clippers (Sunbeam Oster 2-Speed, 150 Cadillac Lane, McMinnville, Tenn., 37110) and then the shaved skin covered in a depilatory cream (Nair, Carter Products, New York, N.Y., 10105) for 10 minutes to remove the remaining hair. A dorsal skin fold consisting of two layers of skin and muscle tissue was then sandwiched between two opposing titanium frames (Campus Research Machine Shop, University of California, San Diego 9500 Gilman Drive, La Jolla, Calif.) with a 15 mm circular opening in each. Layers of skin and muscle fascia were separated from the sub-cutaneous tissue, and removed until a thin monolayer of muscle and one layer of intact skin remained. A coverglass (Type Circle 1, Part #12-545-80 sourced from Fisher Scientific, 2761 Walnut Avenue, Tustin, Calif., 92780) held by an expansion ring in the circular window of one titanium frame was then placed on the exposed tissue to allow direct microscopic visualization of the vasculature. The window in the second opposing titanium frame was left open exposing the intact skin. Two days following the implantation of the titanium chamber, an in-dwelling PE10 catheter (VVR Scientific, Westchester, Pa.) was implanted in the carotid artery. The catheter tubing was passed sub-cutaneously from the ventral to the dorsal side of the neck, and exteriorized through the skin at the base of the chamber. The patency of the catheter was ensured by daily flushing of the in-dwelling implanted tip with 0.005-0.01 ml of heparinized saline (40 IU/ml). The heparin was sourced from Upjohn Co., 100 Route […], Prepack, N.J., 07977, and the saline from Abbott Laboratories, North Chicago, Ill., 60064. Microvascular observations using an intra-vital microscope were not undertaken until at least 4 days post-chamber implantation to mitigate against post-surgical trauma, and to confirm that blood vessels within the chamber were functioning and intact and patent. A chamber was considered suitable for subsequent studies if microscopic examination of the preparation met the following criteria (as applied in […] et al., 1994): The intra-vital microscopic studies were undertaken on un-sedated animals held in a Plexiglass tube (Campus Research Machine Shop, University of California, San Diego 9500 Gilman Drive, La Jolla, Calif.) from which the window chamber sandwich protruded horizontally, allowing visualization of the chamber on the microscope stage. The Plexiglass tube acted to restrain the animals without impeding respiration. The intra-vital microscopy was performed using a Leitz Ortholux II (McBain Instruments, Inc., 9601 […] Avenue, Chatsworth, Calif., 91311) fitted with a Leitz Wetzlar 25× saline immersion objective lens, 0.6 numerical aperture (McBain Instruments, Inc., 9601 […] Avenue, Chatsworth, Calif., 91311), a Leitz Wetzlar 10× dry Planfluotar lens, 0.3 numerical aperture (McBain Instruments, Inc., 9601 […] Avenue, Chatsworth, Calif., 91311) and a Leitz Wetzlar 4× EF dry lens, 0.12 numerical aperture (McBain Instruments, Inc., 9601 […] Avenue, Chatsworth, Calif., 91311). A 100 Watt Hg light source (Olympus Corporation, 2 Corporate Center Drive, Melville, N.Y., 11747-3157) was used for both trans- and epi-illumination. For the trans-illumination studies the light was filtered using a 420 nm blue filter which selectively passed light in the region of the maximum absorbance band of hemoglobin, causing the red blood cells to appear as dark objects against a gray background. In addition, a heat filter was placed in the light path prior to the condenser to prevent hyperthermic effects on the tissue being examined.

Substance: fluorescein diisothiocyanate dextran [FITC-Dextran, reference compound]
- Retention of the molecule in the treated tissue field following PhotoPoint-induced release from the vasculature: at least 48 hrs
